Assay results reported in patent US5523314A, “Compounds useful as hypoglycemic agents and for treating Alzheimer's disease” (priority 1994, dated 1996).
Where two headings read alike, the source gives them in different places.

Assays:
Human liver cathepsin D = target: T1, Human liver cathepsin D (Homo sapiens, UniProt P07339); test: Cathepsin D inhibition, fluorometric assay (Tables 5 and 6); assay type: biochemical; conditions: for inhibition at 4.15 µg/mL (stock): Compound Stock Concentration 4.15 μg/ml; for inhibition at 8.3 µg/mL (stock): Compound Stock Concentration 8.3 μg/ml
T1 construct: purchased Athens Research and Technology, Athens, Ga; host or cells: human liver
Summary of the method: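 Human liver cathepsin D at 500 ng/mL in 200 mM NaOAc pH 4.5, 150 mM NaCl, incubated 30 minutes at 37° C. Reaction stopped with microsomal leucine aminopeptidase (pH 8.0), which over two hours at 37° C releases AMC from cleavage products for fluorometric reading; aminopeptidase inhibition checked with Leu-pNA.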

blood glucose level [1] = test: Hypoglycemic activity in obese diabetic mice (Table 1); assay type: in vivo, male viable yellow obese-diabetic mice; conditions: for response vs control in vivo at 50 mg/kg / response vs control in vivo at 25 mg/kg / response vs control in vivo at 10 mg/kg: Mus musculus, ip, intraperitoneal; for ability to lower blood glucose levels in mammals: compared to structurally similar compounds known in the art, in words
Summary of the method: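 Male viable yellow obese-diabetic mice, six per group, dosed intraperitoneally once with compound in saline containing 2% Emulphor. Blood glucose measured by glucose oxidase before dosing and at 2 and 4 h. Values are the 2 h and 4 h glucose as % of pre-dose level.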

blood glucose level [2] = test: Hypoglycemic activity in normal fed rats (Table 2); assay type: in vivo, male Sprague Dawley rats; conditions: Rattus norvegicus, oral
Experimental: The procedure used in this test system is described below.
(§1) The desired dose level of each test formulation was administered to four rats by oral […] at the beginning of the experiment. Blood glucose levels were determined immediately before the first dose and at 3 and 5 hours thereafter by an enzymatic procedure employing glucose oxidase and peroxidase coupled with a chromogenic oxygen acceptor. A mean was taken of the 4 values obtained before the first dose and at the 3 and 5 hour intervals.

blood glucose level [3] = test: Hypoglycemic activity in obese diabetic Zucker rats (Table 3); assay type: in vivo, obese diabetic Zucker rat (Zucker Diabetic Fatty Rat); conditions: oral
Experimental: as §1, with “Male Sprague Dawley rats (Charles River Laboratories) weighing 175-200 g were used in this test system. […] The” for “The”
The procedure used in this test system is the same as that described for the normal fed rat test system, above. The format of Table 3 is the same as that used in Table 2.

[4] = system: plasma glucose concentration; test: Long-term hypoglycemic activity, compound in diet, A^vy /a mice (Table 4); assay type: in vivo, viable yellow mouse; conditions: 0.1% in diet, Male A^vy /a (Harlan)
Experimental: (§2) Finally, the long-term hypoglycemic activity of the compounds of the present invention was tested in yet another in vivo test system. This long-term test system entailed incorporating test compound into the test animal's diet at various concentrations (control animal's diet contained no test compound). Such diet was then fed to the test or control animals for either 14 or 21 days. Each test or control animal was then bled from the tail (200-400 μl sample of blood) at 0 (before diet started), 7, 14 and, if appropriate, 21 and 28 days after diet administration was started. Plasma samples were then obtained from each blood sample collected and the glucose concentration of such plasma samples was determined enzymatically.
(§3) Columns 4-8 provide the plasma glucose concentration at days 0, 7, 14 and, if appropriate, 21 and 28, respectively, for the animals tested. Glucose lowering was not associated with depressed diet consumption.

[5] = system: plasma glucose concentration; test: Long-term hypoglycemic activity, compound in diet, ZDF rats (Table 4); assay type: in vivo, 8 week old male Zucker Diabetic Fatty rat
Experimental: as §2, §3

β-amyloid protein = β-amyloid protein production inhibition in 293 751 SWE and CHO 751 SWE cells, ELISA (Table 7); assay type: cell-based; conditions: Compound Stock Concentration 10.0 μg/ml; normalized for cytotoxicity
Experimental: Two cell lines (human kidney cell line 293 and Chinese hamster ovary cell line CHO) were stably transfected with the gene for APP751 containing the double mutation Lys-651-Met-652 to Asn-651-Leu-652 (APP-751 numbering) commonly called the Swedish mutation using the method described in Citron et al., Nature 360:672-674 (1992). The transfected cell lines were designated as 293 751 SWE and CHO 751 SWE, and were plated in Corning 96 well plates at 2.5×10^4 or 1×10^4 cells per well respectively in Dulbecco's minimal essential media (DMEM) plus 10% fetal bovine serum. […] These compound stocks were prepared by dissolving a sufficient quantity of the particular compound to be tested in DMSO such that various concentrations were obtained. After this pretreatment period, the conditioned media was removed and replaced with fresh conditioned media and the cells were incubated for an additional two hours.
After treatment, plates were centrifuged in a Beckman GPR at 1200 rpm for five minutes at room temperature to pellet cellular debris from the conditioned media. From each well, 100 μL of conditioned media were transferred into an ELISA plate precoated with antibody 266 [Seubert et al., Nature, 359:325-327 (1992)] and stored at 4° C. overnight prior to the completion of the ELISA assay the next day.
Cytotoxic effects of the compounds were measured by a modification of the method of Hansen et al., J. Immun. Meth. 119:203-210 (1989). To the cells remaining in the tissue culture plate, was added 25 μL of a 3-(4,5-dimethylthiazol-2-yl)-2,5-diphenyltetrazolium bromide (MTT) stock solution (5 mg/mL) to a final concentration of 1 mg/mL. Cells were incubated at 37° C. for one hour, and cellular activity was stopped by the addition of an equal volume of MTT lysis buffer (20% w/v sodium dodecylsulfate in 50% DMF, pH 4.7). Complete extraction was achieved by overnight shaking at room temperature. The difference in the OD562nm and the OD650nm was measured in a Molecular Devices UVmax microplate reader as an indicator of the cellular viability.
The results of the β-amyloid protein ELISA were fit to a standard curve and expressed as ng/mL β-amyloid protein peptide. In order to normalize for cytotoxicity, these β-amyloid protein results were divided by the cytotoxicity results and expressed as a percentage of the results from a drug-free control.

[6] = 2 h, 2 hrs, read-out: Percent of Initial Blood Glucose Level After 2 hrs.
[7] = 4 h, 4 hrs, read-out: Percent of Initial Blood Glucose Level After 4 hrs.
[8] = 3 hrs, read-out: Percent of Initial Blood Glucose Level After 3 hrs.
[9] = 5 hrs, read-out: Percent of Initial Blood Glucose Level After 5 hrs.
[10] = 0.1% in diet, day 0 (before diet started)

T1 sequence (P07339 169-412 limits assumed): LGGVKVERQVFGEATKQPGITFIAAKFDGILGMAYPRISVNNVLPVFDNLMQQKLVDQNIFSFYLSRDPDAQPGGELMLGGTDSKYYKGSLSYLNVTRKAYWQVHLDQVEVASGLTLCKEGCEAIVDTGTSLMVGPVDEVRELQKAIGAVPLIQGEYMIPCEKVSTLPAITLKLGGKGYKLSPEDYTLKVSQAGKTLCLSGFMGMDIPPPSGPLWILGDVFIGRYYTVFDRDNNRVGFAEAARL
T1 sequence (P07339 65-161 limits assumed): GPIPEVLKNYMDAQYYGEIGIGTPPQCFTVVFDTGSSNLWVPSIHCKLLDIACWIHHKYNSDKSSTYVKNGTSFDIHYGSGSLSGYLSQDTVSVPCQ

| SMILES | IC50 (Human liver cathepsin D) [µM] | inhibition at 4.15 µg/mL (stock) (Human liver cathepsin D) [%] | response vs control in vivo at 50 mg/kg (blood glucose level [1]; [6]) [%] | response vs control in vivo at 50 mg/kg (blood glucose level [1]; [7]) [%] | ability to lower blood glucose levels in mammals (blood glucose level [1]) | response vs control in vivo at 200 mg/kg (blood glucose level [2]; [8]) [%] | response vs control in vivo at 200 mg/kg (blood glucose level [2]; [9]) [%] | Percent of Initial Blood Glucose Level After 3 hrs. (blood glucose level [3]; 167 mg/kg) [%] | Percent of Initial Blood Glucose Level After 5 hrs. (blood glucose level [3]; 167 mg/kg) [%] | Plasma Glucose Concentration ([4]; day 0 (before diet started)) [mg/dL] | Plasma Glucose Concentration ([4]; day 7) [mg/dL] | Plasma Glucose Concentration ([4]; day 14) [mg/dL] | Plasma Glucose Concentration ([4]; day 21) [mg/dL] | Plasma Glucose Concentration ([4]; day 28) [mg/dL] | inhibition at 8.3 µg/mL (stock) (Human liver cathepsin D) [%] | response vs control in vivo at 25 mg/kg (blood glucose level [1]; [6]) [%] | response vs control in vivo at 25 mg/kg (blood glucose level [1]; [7]) [%] | response vs control in vivo at 10 mg/kg (blood glucose level [1]; [6]) [%] | response vs control in vivo at 10 mg/kg (blood glucose level [1]; [7]) [%] | inhibition at 10 µg/mL (stock) (β-amyloid protein) [%] | other results |
| --- | --- | --- | --- | --- | --- | --- | --- | --- | --- | --- | --- | --- | --- | --- | --- | --- | --- | --- | --- | --- | --- |
| CCCCCOc1ccc(C=C2SC(=S)NC2=O)cc1 [Example 47, 5-[(4-pentoxyphenyl)methylene]-2-thioxo-4-thiazolidinone] | 5.2 | 60.5 | 99 ± 14 | 76 ± 8 | surprising ability to lower blood glucose levels in mammals | 82 | 73 | 74 | 66 |  |  |  |  |  |  |  |  |  |  |  |  |
| CCCCCOc1ccc(C=C2SC(=S)NC2=O)cc1OC [Example 45, 5-[(3-methoxy-4-pentoxyphenyl)methylene]-2-thioxo-4-thiazolidinone] |  | 49.5 | 76 ± 7 | 57 ± 3 | surprising ability to lower blood glucose levels in mammals |  |  | 30 | 20 | 438 | 338 | 315 | 287 | 295 | 95 | 93 ± 4 | 87 ± 5 |  |  |  | response vs control in vivo at 167 mg/kg (blood glucose level [2]; [8]): 61%; response vs control in vivo at 167 mg/kg (blood glucose level [2]; [9]): 63%; Plasma Glucose Concentration ([5]; 0.025% in diet, day 0 (before diet started)): 467 mg/dL; Plasma Glucose Concentration ([5]; 0.025% in diet, day 7): 451 mg/dL; Plasma Glucose Concentration ([5]; 0.025% in diet, day 14): 452 mg/dL; Plasma Glucose Concentration ([5]; 0.025% in diet, day 21): 517 mg/dL; Plasma Glucose Concentration ([5]; 0.1% in diet, day 21): 285 mg/dL |
| CCCCOc1ccc(C=C2SC(=S)NC2=O)cc1OCC [Example 56, 5-[(3-ethoxy-4-butoxyphenyl)methylene]-2-thioxo-4-thiazolidinone] | 12.3 | 73 | 78 ± 4 | 72 ± 3 | surprising ability to lower blood glucose levels in mammals |  |  |  |  |  |  |  |  |  |  | 81 ± 8 | 75 ± 3 | 94 ± 4 | 97 ± 4 |  | ability to inhibit cathepsin D (Human liver cathepsin D; compared to structurally similar compounds known in the art, in words): surprising ability to inhibit cathepsin D levels; response vs control in vivo at 150 mg/kg (blood glucose level [2]; [8]): 79%; response vs control in vivo at 150 mg/kg (blood glucose level [2]; [9]): 65%; Percent of Initial Blood Glucose Level After 3 hrs. (blood glucose level [3]; 50 mg/kg): 79%; Percent of Initial Blood Glucose Level After 5 hrs. (blood glucose level [3]; 50 mg/kg): 66% |
| CCOc1ccc(C=C2SC(=S)NC2=O)cc1OCC [Example 38, 5-[(3,4-diethoxyphenyl)methylene]-2-thioxo-4-thiazolidinone] |  |  |  |  |  | 90 | 74 |  |  | 340 | 351 | 328 | 303 | 331 |  | 69 ± 9 | 65 ± 7 | 72 ± 4 | 71 ± 6 |  |  |
| CC(C)(C)c1cc(C=C2SC(=S)NC2=O)cc(CSc2ccccc2)c1O [Example 71] |  |  |  |  |  |  |  |  |  |  |  |  |  |  | 94 |  |  |  |  | 65 | IC50 (Human liver cathepsin D; 50% inhibition of cathepsin D): 2.1 µM; inhibition at 10 µg/mL (stock) (Human liver cathepsin D; Compound Stock Concentration 10.0 μg/ml): 76%; Plasma Glucose Concentration [5, 10]: 311 mg/dL; Plasma Glucose Concentration ([5]; 0.1% in diet, day 7): 237 mg/dL; Plasma Glucose Concentration ([5]; 0.1% in diet, day 14): 232 mg/dL |
| CCCCCOc1c(OC)cc(C=C2SC(=S)NC2=O)cc1OC [Example 70, 5-[(3,5-dimethoxy-4-pentoxyphenyl)methylene]-2-thioxo-4-thiazolidinone] | 5.4 | 66 |  |  |  |  |  |  |  |  |  |  |  |  |  |  |  |  |  | 38 | Plasma Glucose Concentration [5, 10]: 300 mg/dL; Plasma Glucose Concentration ([5]; 0.1% in diet, day 7): 190 mg/dL; Plasma Glucose Concentration ([5]; 0.1% in diet, day 14): 195 mg/dL |
